# Measurements as given in patent US11506670B2, “Method of genome-wide direct identification of electrophile-sensing targets” (Cornell University, priority 2018, dated 2022).
# How the values were obtained:
# NF-κB-signaling (Ube2V2) = assay: NF-κB dual luciferase reporter assay after T-REX on Halo-Ube2V2; type: cell-based, human; details: T-REX HNEylation of Ube2V2 in place of Ube2V1
# Description: 1.5-1.6×10^5 HEK 293T cells were seeded in each well of a 48-well plate. 24 h later, the cells were transfected with 120 ng of the designated HaloTag fusion gene plasmid and 120 ng of NF-kB-Firefly luciferase: pCMV-Renilla luciferase (40:1) mix, using TransIT-2020 transfection agent. 24 h post-transfection, cells were treated with 25 μM Ht-PreHNE or vehicle (corresponding volume of DMSO alone) for 2.5 h, rinsed three times and irradiated with 365 nm UV light for 10 min. The cells were incubated for a further 8 h. For dual luciferase assay, cells in each well were gently washed with 1×DPBS and lysed in 65 μL of 1× passive lysis buffer containing in final concentrations 25 mM Tris (pH 7.8), 2 mM 1,2-CDTA, 2 mM DTT, 1 mg/mL BSA, 1% Triton X-100, and 10% Glycerol. 20 μL of the lysate was transferred to a white opaque 96-well plate (Corning). Firefly luciferase was read after adding 50 μL Firefly substrate (75 mM HEPES pH 8.0, 4 mM MgSO4, 20 mM DTT, 0.1 mM EDTA, 0.53 mM ATP, 0.27 mM Coenzyme-A, 0.47 mM D-Luciferin Firefly). Subsequently, 50 μL of Stop and Glow substrate (7.5 mM sodium acetate pH 5.0, 400 mM sodium sulfate, 10 mM CDTA, 15 mM sodium pyrophosphate, 0.025 mM APMBT, 5.5 μM Coelenterazine) was added and Renilla luciferase activity was measured.
# HaloTag = assay: Reaction of purified recombinant HaloTag with HNE, in-gel fluorescence; type: biochemical; details: 0-16 equiv., 20-min incubation
# Description: HEK293T cells expressing HaloTag alone treated under standard T-REX™ delivery conditions with Ht-PreHNE were exposed to UV light (0.3 mW/cm^2, 365 nm) for the indicated time periods at which point the cells were harvested, lysed, and subjected to Click coupling and in-gel fluorescence analysis followed by western blot. Error bars designate SD (N=3). […] Purified recombinant HaloTag was treated with either the photocaged precursor Ht-PreHNE (FIG. 17, inset, and FIG. 29) (2 equiv., lane a, positive control), or directly with reactive electrophile HNE (FIG. 29) (0, 2, 4, 8, 16 equiv., lane b, c, d, e, f, respectively). After 20-min incubation, the samples were analyzed by in-gel fluorescence. M, molecular weight ladder.
structure (smiles),measurement,setting,value
"CCCCCC(O)/C=C/C=O (centres unmarked) [HNE, 4-hydroxynonenal]",NF-κB-pathway activation,NF-κB-signaling (Ube2V2),did not result in NF-κB-pathway activation
same,reaction of HaloTag with HNE,HaloTag,does not react
